Read-outs that look alike come from different tables or passages of the source.
Columns and labels:
[1] = test system: adrenal cortisol production
Description: Dexamethasone (0.01 mg/kg) was administered two hours before the first administration of ACTH and re-administered every 2 hours to maintain suppression. Dexamethasone pretreatment suppresses the hypothalamo-hypophyseal axis to prevent endogenous ACTH release and subsequent adrenocortical steroid secretion. […] Synthetic ACTH (Synacthen, 250 μg) was then administered at times after test substance administration to evaluate the effects of the test substance on the release of the adrenal steroid, cortisol.
All study methods described for Study 1 were repeated, except the ACTH administration at the end of infusion was omitted.

[2] = test system: Sprague-Dawley rats; test: In vivo sedative/hypnotic testing, IV bolus, rats; set-up: species or system rat; conditions: for slope of duration of LORR vs logarithm of dose: rats
Description: (§1) Animals were housed in a dedicated room at the vivarium of VivoPath Inc., located at Redstone Center, 55 Union Street, Worcester, Mass. Housing and care was as specified in the USDA Animal Welfare Act (9 CFR, Parts 1, 2, and 3) and as described in the Guide for the Care and Use of Laboratory Animals from the National Research Council. Environmental conditions of housing rooms are set at the following ranges: temperature: 70±7° F. (22±4° C.), humidity: 50±20%, light cycle: 12-hour light/12-hour dark cycle—lights on at 7 am and off at 7 pm., air changes: ten or more air changes per hour with 100% fresh air. The animals' body weights were measured prior to the first dose on each experimental day.
Adult male Sprague-Dawley rats (225-300 g) were purchased from Harlan (South Easton, Mass.).
(§2) Drugs were prepared in either dimethylsulfoxide/saline or saline vehicle or hydroxypropyl-β-cyclodextrin (20% in water, pH 7.0) solution and were administered as an intravenous bolus injection. Animals received 1-4 doses of drug(s) during an experimental day, either ascending doses or different drugs. Doses were administered at intervals equal to the longer of 1 h or 10-times the duration of apparent sedative/hypnotic effects from the previous dose. The sedative/hypnotic properties of the drugs were evaluated by observation of the rats, ranging from mild excitation, mild sedation apparent due to reduced activity, and moderate sedation to hypnosis reflected by loss of righting reflex (LORR, the ability to place rear and hind legs under the body, as well as attenuation/loss of nociceptive reflexes).

[3] = test system: rats; test: loss of righting reflexes (LORR) assay after IV bolus; conditions: for ED50: Rattus norvegicus, iv, read-out: ED50 ± SD; for Slope of Duration vs. Log Dose ± SD: duration of LORR vs log dose, rats
Description: Adult male Sprague-Dawley rats (230-350 gm) were purchased from Charles River Laboratories (Wilmington, Mass.) and housed in the Massachusetts General Hospital Center for Comparative Medicine animal care facility. All drugs were administered through a femoral venous catheter pre-implanted by the vendor prior to animal delivery to our animal care facility.
Immediately after injection, rats were turned supine. […] A stopwatch was used to measure the duration of LORR, which was defined as the time from drug injection until the animal spontaneously righted itself.

[4] = test system: beagle dogs; conditions: dogs
Description: A pilot study was conducted in dogs to assess anesthesia induced by cyclopropyl-MOC-metomidate continuous infusion without a bolus induction dosing. Two dogs received cyclopropyl-MOC-metomidate as a 1 mg/kg/min IV infusion without prior bolus administration.
Anesthesia induction was determined using the methods described above.
Etomidate was administered to dogs at IV bolus doses ranging from 0.25 to 2 mg/kg. Anesthesia in the dogs was measured as described above. […] The bolus dose of 2 mg/kg was adopted to induce anesthesia prior to subsequent continuous infusions.
Propofol was administered to dogs as an IV bolus dose of 5 mg/kg to induce anesthesia followed by a continuous infusion at 0.4 mg/kg/min.

[5] = From Pejo et al.; cited from earlier work
[6] = test system: ICR mice; test: In vivo sedative/hypnotic testing, IV bolus, mice; set-up: species or system mouse; conditions: for slope of duration of LORR vs logarithm of dose: mice
Description: as §1
Adult ICR mice (20-30 g) were purchased from Harlan (South Easton, Mass.). Drugs were administered as intravenous bolus injection in a tail vein.
as §2

[7] = In vitro metabolic half-life of hypnotics in rat blood; format: in vitro ADME; conditions: Sprague-Dawley, rat, rat blood
Description: On the day of study, whole blood was drawn from the femoral venous catheters of 3 Sprague-Dawley rats (1-2 ml/rat), immediately anticoagulated with heparin (38 U), pooled, and stored on ice. A 1 ml aliquot of blood was warmed at 37° C. for 5 minutes and hypnotic (from a 40 mM in dimethyl sulfoxide stock solution) was added to a final concentration of 100 μM. After the desired incubation time, a 150 μl sample was removed and the metabolic reaction was quenched with 150 μl acetonitrile (Sigma-Aldrich, St. Louis, Mo.). Zero time point samples were prepared by adding 150 μl acetonitrile to blood prior to adding hypnotic (from a 4 mM in dimethyl sulfoxide stock solution). The quenched samples were centrifuged and the resultant supernatant separated and stored at −20° C. until analyzed. Hypnotic concentrations in thawed samples were determined by high performance liquid chromatography using a Varian Prostar system with a 4.6×250 mm Proto 300 C18 column (Nest Group, Southborough, Mass.) with the UV detector set at 240 nm.

[8] = Octanol:water partition coefficients; format: physicochemical; conditions: 10 mM Tris pH 7.4; read-out: Octanol/Water Partition Coefficient ± SD (converted)
Description: One mg of each hypnotic was added to 10 ml of water buffered with 10 mM Tris (pH 7.4) and 0.5 ml or 1 ml of octanol. The mixture was stirred overnight and then centrifuged to more fully separate the organic and aqueous phases. The relative hypnotic concentrations in each phase (i.e. the partition coefficient) were determined by high performance liquid chromatography as described for blood.

[9] = test system: dogs and monkeys; test: Preliminary studies of duration of action in dogs and monkeys; format: in vivo; conditions: large animals, similar to that in rats
[10] = pooled heparinised whole blood, 37° C., 100 μM, read-out: Blood Half-Life (95% CI)

CCOC(=O)c1cncn1[C@H](C)c1ccccc1 [Etomidate, (R)-ethyl-1-(1-phenylethyl)-1H-imidazole-5-carboxylate, reference compound]
ACTH-induced plasma cortisol response ([1]; Study 1, dogs, after 120-minute infusion): markedly inhibited
adrenal suppression ([1]; dogs, compared with the other test substances): more profound and durable adrenal suppression
slope of duration of LORR vs logarithm of dose [2]: ~24
ED50 [3]: 0.53 ± 0.17 mg/kg
Slope of Duration vs. Log Dose ± SD [3]: 24±4.7 min/(log mg/kg)
involuntary movements during recovery [4]: extended periods of involuntary movements
bolus dose range inducing anesthesia ([4]; IV bolus 0.25 to 2 mg/kg tested): 0.5 to 2 mg/kg
minimum initial effective continuous infusion dose rate ([4]; after 2 mg/kg bolus): 0.15 mg/kg/min
respiratory effect during infusion ([4]; after approximately 30 minutes at 0.15 mg/kg/min): decrease in respiratory rate
context dependence of recovery from anesthesia ([4]; bolus vs 30- or 120-minute infusion): marked context-dependency
Octanol/Water Partition Coefficient ± SD [5]: 800 ± 180
slope of duration of LORR vs logarithm of dose [6]: approximately 10

COC(=O)CCOC(=O)c1cncn1[C@H](C)c1ccccc1 [Methoxycarbonyl etomidate, methoxycarbonyl etomidate, reference compound]
half-life at 100 μM [7, 10]: 24.6 s
half-life at 100 μM ([7]; 37° C., 100 μM, read-out: Blood Half-Life (95% CI)): 8.4 s
half-life at 100 μM ([7]; bound based on the lower limit of quantification, read-out: metabolic half-life in rat blood (converted)): 20 s
logD [8]: 2.28
Rat response ([2]; IV bolus, doses as in the cell): Sedation/hypnosis induced at 8 &
ED50 ([2]; Rattus norvegicus, sedation/hypnosis, IV): ~8 mg/kg
slope of duration of LORR vs logarithm of dose [2]: approximately 1.0
ED50 [3]: 5.3 ± 1.5 mg/kg
Slope of Duration vs. Log Dose ± SD [3]: 1.0±0.3 min/(log mg/kg)
duration of action [9]: 1 to 2 min
ED50 ([6]; Mus musculus, sedation/hypnosis, IV): ~10 mg/kg
slope of duration of LORR vs logarithm of dose [6]: approximately 1.0

COC(=O)C[C@H](C)OC(=O)c1cncn1[C@H](C)c1ccccc1 [β-(S)- methyl- methoxycarbonyl etomidate, β-S-methyl-MOC-etomidate]
half-life at 100 μM [7, 10]: 43.2 s
logD [8]: 2.68
ED50 [3]: 2.9 ± 0.3 mg/kg

COC(=O)CC(C)(C)OC(=O)c1cncn1[C@H](C)c1ccccc1 [β-dimethyl- methoxycarbonyl etomidate, β-dimethyl-MOC-etomidate]
half-life at 100 μM [7, 10]: 1400 s
logD [8]: 3.2
ED50 [3]: 1.9 ± 0.3 mg/kg

From patent publication US10154991B2, “Anesthetic compounds and related methods of use” (priority 2012, dated 2018)
